Entries after “also recorded” stand apart in the source; their conditions may differ.
Tested on: cisplatin-induced nephropathy in mice
Test: Cisplatin-induced nephropathy mouse model (anaemia and renal function)
Assay type: in vivo
Experimental: Forty six-to-seven-week-old C57Bl/6J male mice were i.p. injected with three doses of cisplatin (Sigma-Aldrich), following the scheme of 7, 6, and 6 mg·kg-1 body weight, at 4 to 5 day intervals, and the normal group (n=4) was injected with saline (FIG. 1 scheme). On day 12, the collected serum samples were assayed for the urea nitrogen content (BUN). Mice with BUN values greater than 80 mg·dL-1 were chosen for the experiment. An average seventy percent of injected mice were successful induced renal dysfunction, and the ineffective mice were excluded from the EH202 treating experiments. The mice were subsequently divided randomly into 4 cohorts comprising the control (Ctrl, n=6) and three EH202-treated groups (n=5 to 6 for each group) for an additional 2 weeks. Blood samples from all the mice were collected every 5 days. The RBC numbers were determined from the complete blood cell count using a Sysmex Kx-21 haematology analyser (Sysmex America), and the serum BUN and creatinine levels were determined using a commercial kit (Randox Laboratories Ltd. United Kingdom). All results are expressed as the mean±SEM. The statistical analysis was performed using Student's t-test. One-way ANOVA was used to examine the differences across the animal experimental groups. The posthoc differences between the means of the experimental groups were determined via Tukey's test. P<0.05 was considered significant.

**Q.** How did the BUN levels (10, 30 and 90 mg·kg-1 treatment groups, day 29, FIG. 2C) turn out when OC[C@H]1OC(Oc2c(/C=C/c3ccc(F)cc3)ccc3ccccc23)[C@H](O)[C@@H](O)[C@@H]1O (stereo partly drawn) [EH202, (Naphthanol-4′fluoro-stilbenzene)-1-O-β-D-glycoside] was run?
**A.** accelerates the recovery from renal dysfunction; also recorded: significantly recovered

**Q.** What about the “recovery of anaemia (HGB level, RBC numbers)” value (30 and 90 mg·kg-1, FIGS. 2D and 2E) of the same molecule?
**A.** increasing recovery of anaemia

**Q.** What about the “recovery of renal dysfunction (creatinine level in the peripheral blood)” value (30 and 90 mg·kg-1 for 10 days, day 24, FIG. 2B) of the same molecule?
**A.** accelerates the recovery from renal dysfunction; also recorded: almost complete recovery of renal dysfunction

**Q.** What about the “recovery from anemia, hemoglobin (HGB) level in the peripheral blood” value (day 24, FIG. 2D) of the same molecule?
**A.** accelerates the recovery from anemia

**Q.** What about the “recovery from anemia, RBC numbers in the peripheral blood” value (day 29, FIG. 2E) of the same molecule?
**A.** accelerates the recovery from anemia
